Assay results taken from article doi:10.1101/843607v1 (biorxiv, 2019).

Molecular target: T1, Recombinant Mouse Matriptase (Mus musculus, UniProt P56677)
T1 sequence (P56677 615-855 limits assumed): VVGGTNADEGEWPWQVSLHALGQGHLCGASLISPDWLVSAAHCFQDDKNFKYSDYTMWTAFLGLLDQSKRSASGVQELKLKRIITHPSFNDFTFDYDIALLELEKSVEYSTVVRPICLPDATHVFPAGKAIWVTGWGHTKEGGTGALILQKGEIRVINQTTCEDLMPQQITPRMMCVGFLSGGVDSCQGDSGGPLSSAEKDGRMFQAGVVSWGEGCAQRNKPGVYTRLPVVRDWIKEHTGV
Test: fluorogenic AMC release from Boc-QAC-AMC
Format: biochemical

IC50: 0.86 nM
SMILES: N=C(N)c1ccc2cc(OC(=O)c3ccc(N=C(N)N)cc3)ccc2c1 [Nafamostat mesilate]
